efficacy, chromatographic logP and logP data for 12 compounds are collected here from patent publication US6359133B2, “Halogen pyrimidinyl aryl (thio) ethers as pesticides” (Bayer Aktiengesellschaft, priority 1996, dated 2002).

What is called chromatographic logP is a lipophilicity value derived from retention on a column. A higher chromatographic logP goes with higher lipophilicity. For orientation: logP means a log measure of how a compound divides between an organic and an aqueous phase. Lower therefore signals a more hydrophilic compound.

One data set has as its system Pyriculaia oryzae. In kind it is in vivo. Particulars: rice, protective, 750 g/ha, evaluation 4 days after inoculation, vs untreated control.
Data set [1] concerns Erysiphe graminis f.sp. hordei. Briefly: Erysiphe test (barley)/protective. The format is in vivo. Particulars: protective, 250 g/ha, evaluation 7 days after inoculation, vs untreated control. Here is the method: Erysiphe Test (barley)/Protective Solvent: 10 parts by weight of N-methyl-pyrrolidone. Emulsifier: 0.6 part by weight of alkylaryl polyglycol ether. To produce a suitable preparation of active compound, 1 part by weight of active compound is mixed with the stated amounts of solvent and emulsifier, and the concentrate is diluted with water to the desired concentration. To test for protective activity, young plants are sprayed with the preparation of active compound at the stated application rate. After the spray coating has dried on, the plants are dusted with spores of Erysiphe graminis f.sp. hordei.

Data set [2] in a line: logP determination by HPLC (EEC Directive 79/831 Annex V. A8). To be noted: gradient method, acetonitrile/0.1% aqueous phosphoric acid.

As for `CNC(=O)/C(=N/OC)c1ccccc1Oc1ncnc(Oc2ccccc2Cl)c1F` [Example 1, 2-{2-[6-(2-chlorophenoxy)-5-fluoro-pyrimidine4-yloxy]-phenyl}-2-methoxyimino-N-methylacetamide], in the data set on Pyriculaia oryzae, the efficacy was 80%.
`CNC(=O)/C(=N/OC)c1ccccc1Oc1ncnc(Oc2ccccc2C)c1F` [Example 2, 2-[2-(5-fluoro-6-o-tolyloxy-pyrimidin-4-yloxy)-phenyl]-2-methoxyimino-N-methyl-acetamide] returned a chromatographic logP in “physchem” of 3.04. For the same compound, the efficacy was 100% in data set [1] and 80% with Pyriculaia oryzae.
Turning to `CNC(=O)C(=NOC)c1ccccc1Oc1ncnc(Oc2ccccc2C#N)c1F` [Example 4], the efficacy in the data set with Pyriculaia oryzae is listed as 80%.
Take `C=CCOc1ccccc1Oc1ncnc(Oc2ccccc2C(=NOC)C(=O)NC)c1F` [Example 8]: the figures for the efficacy (in data set [1]; in the data set with Pyriculaia oryzae) were 100% and 80%, respectively.
In the data set on Pyriculaia oryzae, `CCC(=O)Oc1ccccc1Oc1ncnc(Oc2ccccc2C(=NOC)C(=O)NC)c1F` [Example 9] returned an efficacy of 80%.
`CON=C(C(N)=O)c1ccccc1Oc1ncnc(Oc2ccccc2Cl)c1F` [Example 10] showed an efficacy in the data set with Pyriculaia oryzae of 80%.
`CNC(=O)C(=NOC)c1ccccc1Oc1ncnc(Oc2ccc(Cl)cc2Cl)c1F` [Example 15] displayed a logP in data set [2] of 3.61.
On to `CNC(=O)C(=NOC)c1ccccc1Oc1ncnc(Oc2cc(C)ccc2C)c1F` [Example 20], for which the efficacy with Pyriculaia oryzae is 80%.
Still for that read-out and setting: under `CNC(=O)C(=NOC)c1ccccc1Oc1ncnc(Oc2c(C)cccc2C)c1F` [Example 21] stands 80%.
The compound `CNC(=O)C(=NOC)c1ccccc1Oc1ncnc(Oc2ccc(C)cc2Cl)c1F` [Example 22] had an efficacy with Pyriculaia oryzae of 80%.
With `CNC(=O)C(=NOC)c1ccccc1Oc1ncnc(Oc2cccc(Cl)c2C)c1F` [Example 24], the efficacy with Pyriculaia oryzae amounted to 80%.
Regarding `CO/N=C(/C(N)=O)c1ccccc1O` [Example II-1, 2-(2-hydroxy-phenyl)-2-methoxyimino-acetamide], in “physchem”, the chromatographic logP worked out at 0.83.
